# Assays:
# MCF7 = assay: Antiproliferative activity against human MCF7 cells assessed as cell growth at 10^-7 M after 48 hrs by sulforhodamine B assay; type: functional; conditions: MCF7, 48 h, read-out: Activity
# 786-0 [1] = assay: Antiproliferative activity against human 786-0 cells assessed as cell growth at 10^-6 M after 48 hrs by sulforhodamine B assay; type: functional; conditions: 786-0, 48 h, read-out: Activity
# [2] = Antiproliferative activity against human RXF393 cells assessed as growth inhibition after 48 hrs by sulforhodamine B assay; type: functional; conditions: RXF 393, 48 h
# [3] = Antiproliferative activity against human SF539 cells assessed as growth inhibition after 48 hrs by sulforhodamine B assay; type: functional; conditions: SF-539, 48 h
# K562 [4] = assay: Antiproliferative activity against human K562 cells assessed as cell growth at 10^-7 M after 48 hrs by sulforhodamine B assay; type: functional; conditions: K562, 48 h, read-out: Activity
# NCI-H226 = assay: Antiproliferative activity against human NCI-H226 cells assessed as cell growth at 10^-7 M after 48 hrs by sulforhodamine B assay; type: functional; conditions: NCI-H226, 48 h, read-out: Activity
# SK-MEL-28 = assay: Antiproliferative activity against human SK-MEL-28 cells assessed as cell growth at 10^-6 M after 48 hrs by sulforhodamine B assay; type: functional; conditions: SK-MEL-28, 48 h, read-out: Activity
# [5] = Antiproliferative activity against human NCI-ADR-RES cells assessed as cell growth at 10^-6 M after 48 hrs by sulforhodamine B assay; type: functional; conditions: read-out: Activity
# 786-0 [6] = assay: Antiproliferative activity against human 786-0 cells assessed as cell growth at 10^-7 M after 48 hrs by sulforhodamine B assay; type: functional; conditions: 786-0, 48 h, read-out: Activity
# [7] = Antiproliferative activity against human MOLT4 cells assessed as growth inhibition after 48 hrs by sulforhodamine B assay; type: functional; conditions: MOLT-4, 48 h
# KM12 = assay: Antiproliferative activity against human KM12 cells assessed as cell growth at 10^-6 M after 48 hrs by sulforhodamine B assay; type: functional; conditions: KM12, 48 h, read-out: Activity
# Malme-3M = assay: Antiproliferative activity against human MALME-3M cells assessed as cell growth at 10^-6 M after 48 hrs by sulforhodamine B assay; type: functional; conditions: read-out: Activity
# [8] = Antiproliferative activity against human Hs 578T cells assessed as cell growth at 10^-7 M after 48 hrs by sulforhodamine B assay; type: functional; conditions: read-out: Activity
# A549 = assay: Antiproliferative activity against human A549/ATCC cells assessed as growth inhibition after 48 hrs by sulforhodamine B assay; type: functional; conditions: A549, 48 h
# K562 [9] = assay: Antiproliferative activity against human K562 cells assessed as cell growth at 10^-8 M after 48 hrs by sulforhodamine B assay; type: functional; conditions: K562, 48 h, read-out: Activity
# [10] = Antiproliferative activity against human OVCAR3 cells assessed as cell growth at 10^-8 M after 48 hrs by sulforhodamine B assay; type: functional; conditions: OVCAR-3, 48 h, read-out: Activity
# [11] = Antiproliferative activity against human RPMI8226 cells assessed as cell growth at 10^-4 M after 48 hrs by sulforhodamine B assay; type: functional; conditions: RPMI-8226, 48 h, read-out: Activity
# [12] = Antiproliferative activity against human HCT116 cells assessed as cell growth at 10^-4 M after 48 hrs by sulforhodamine B assay; type: functional; conditions: HCT-116, 48 h, read-out: Activity
# NCI-H23 [13] = assay: Antiproliferative activity against human NCI-H23 cells assessed as growth inhibition after 48 hrs by sulforhodamine B assay; type: functional; conditions: NCI-H23, 48 h
# [14] = Antiproliferative activity against human SF539 cells assessed as cell growth at 10^-8 M after 48 hrs by sulforhodamine B assay; type: functional; conditions: SF-539, 48 h, read-out: Activity
# NCI-H522 = assay: Antiproliferative activity against human NCI-H522 cells assessed as cell growth at 10^-7 M after 48 hrs by sulforhodamine B assay; type: functional; conditions: NCI-H522, 48 h, read-out: Activity
# [15] = Antiproliferative activity against human PC3 cells assessed as cell growth at 10^-4 M after 48 hrs by sulforhodamine B assay; type: functional; conditions: PC-3, 48 h, read-out: Activity
# [16] = Antiproliferative activity against human Caki1 cells assessed as growth inhibition after 48 hrs by sulforhodamine B assay; type: functional; conditions: CAKI-1, 48 h
# [17] = Antiproliferative activity against human Caki1 cells assessed as cell growth at 10^-8 M after 48 hrs by sulforhodamine B assay; type: functional; conditions: CAKI-1, 48 h, read-out: Activity
# T47D = assay: Antiproliferative activity against human T47D cells assessed as cell growth at 10^-6 M after 48 hrs by sulforhodamine B assay; type: functional; conditions: read-out: Activity
# MDA-MB-468 = assay: Antiproliferative activity against human MDA-MB-468 cells assessed as cell growth at 10^-6 M after 48 hrs by sulforhodamine B assay; type: functional; conditions: MDA-MB-468, 48 h, read-out: Activity
# [18] = Antiproliferative activity against human RPMI8226 cells assessed as cell growth at 10^-6 M after 48 hrs by sulforhodamine B assay; type: functional; conditions: RPMI-8226, 48 h, read-out: Activity
# [19] = Antiproliferative activity against human UACC257 cells assessed as cell growth at 10^-4 M after 48 hrs by sulforhodamine B assay; type: functional; conditions: UACC-257, 48 h, read-out: Activity
# [20] = Antiproliferative activity against human IGROV1 cells assessed as cell growth at 10^-6 M after 48 hrs by sulforhodamine B assay; type: functional; conditions: IGROV-1, 48 h, read-out: Activity
# [21] = Antiproliferative activity against human PC3 cells assessed as cell growth at 10^-6 M after 48 hrs by sulforhodamine B assay; type: functional; conditions: PC-3, 48 h, read-out: Activity
# [22] = Antiproliferative activity against human SW620 cells assessed as cell growth at 10^-6 M after 48 hrs by sulforhodamine B assay; type: functional; conditions: SW-620, 48 h, read-out: Activity
# [23] = Antiproliferative activity against human UACC62 cells assessed as cell growth at 10^-4 M after 48 hrs by sulforhodamine B assay; type: functional; conditions: UACC-62, 48 h, read-out: Activity
# [24] = Antiproliferative activity against human HOP62 cells assessed as cell growth at 10^-6 M after 48 hrs by sulforhodamine B assay; type: functional; conditions: HOP-62, 48 h, read-out: Activity
# [25] = target: RAF proto-oncogene serine/threonine-protein kinase (Homo sapiens, UniProt P04049); assay: Inhibition of human CRAF at 10 uM measured after 40 mins by scintillation counting
# Sequence of RAF proto-oncogene serine/threonine-protein kinase (P04049 whole entry): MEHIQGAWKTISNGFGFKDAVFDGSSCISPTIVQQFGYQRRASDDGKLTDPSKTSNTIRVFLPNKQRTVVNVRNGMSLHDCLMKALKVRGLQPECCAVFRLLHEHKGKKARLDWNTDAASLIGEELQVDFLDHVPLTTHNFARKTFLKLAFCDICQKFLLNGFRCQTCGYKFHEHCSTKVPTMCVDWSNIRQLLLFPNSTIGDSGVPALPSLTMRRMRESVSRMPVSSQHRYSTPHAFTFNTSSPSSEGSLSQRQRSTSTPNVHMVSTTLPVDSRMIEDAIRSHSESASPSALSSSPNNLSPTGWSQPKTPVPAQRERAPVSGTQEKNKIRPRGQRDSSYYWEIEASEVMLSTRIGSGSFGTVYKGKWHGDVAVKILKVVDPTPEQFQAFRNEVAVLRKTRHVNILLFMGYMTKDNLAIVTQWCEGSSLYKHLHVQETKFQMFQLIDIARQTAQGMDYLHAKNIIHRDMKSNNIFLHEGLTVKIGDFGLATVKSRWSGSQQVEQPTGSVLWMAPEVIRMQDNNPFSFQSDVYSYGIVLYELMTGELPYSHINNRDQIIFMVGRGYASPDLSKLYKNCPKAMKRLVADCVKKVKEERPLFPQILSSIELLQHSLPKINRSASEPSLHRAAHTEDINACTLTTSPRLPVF
# NCI-H23 [26] = assay: Antiproliferative activity against human NCI-H23 cells assessed as cell growth at 10^-4 M after 48 hrs by sulforhodamine B assay; type: functional; conditions: NCI-H23, 48 h, read-out: Activity
# [27] = read-out: LC50 (the source's name)
smiles,measurement,setting,value
CNC(=O)c1cc(Oc2ccc3nc(NC(=O)Nc4ccc(Cl)c(Cl)c4)sc3c2)ccn1,growth at 0.1 µM,MCF7,89%
same,growth at 1 µM,786-0 [1],100%
same,GI50,[2],1840 nM
same,TGI,[2],3.65 µM
same,CC50,[2]; [27],7.24 µM
same,GI50,[3],2170 nM
same,LC50,[3],11.1 µM
same,TGI,[3],4.69 µM
same,growth at 0.1 µM,K562 [4],98%
same,growth at 0.1 µM,NCI-H226,106%
same,growth at 1 µM,SK-MEL-28,88%
same,growth at 1 µM,[5],103%
same,growth at 0.1 µM,786-0 [6],100%
same,GI50,[7],> 100 µM
same,LC50,[7],> 100 µM
same,TGI,[7],> 100 µM
same,growth at 1 µM,KM12,91%
same,growth at 1 µM,Malme-3M,76%
same,growth at 0.1 µM,[8],108%
same,GI50,A549,1890 nM
same,TGI,A549,3.99 µM
same,growth at 0.01 µM,K562 [9],99%
same,growth at 0.01 µM,[10],101%
same,growth at 100 µM,[11],15%
same,growth at 100 µM,[12],-54%
same,GI50,NCI-H23 [13],2780 nM
same,LC50,NCI-H23 [13],> 100 µM
same,TGI,NCI-H23 [13],> 100 µM
same,growth at 0.01 µM,[14],92%
same,growth at 0.1 µM,NCI-H522,100%
same,growth at 100 µM,[15],-50%
same,GI50,[16],2460 nM
same,TGI,[16],6.3 µM
same,CC50,[16]; [27],> 100 µM
same,growth at 0.01 µM,[17],92%
same,growth at 1 µM,T47D,106%
same,growth at 1 µM,MDA-MB-468,86%
same,growth at 1 µM,[18],103%
same,growth at 100 µM,[19],7%
same,growth at 1 µM,[20],98%
same,growth at 1 µM,[21],92%
same,growth at 1 µM,[22],128%
same,growth at 100 µM,[23],-20%
same,growth at 1 µM,[24],119%
same,inhibition,[25],98.6%
same,growth at 100 µM,NCI-H23 [26],6%
